{"source": "patent US10457691B2", "about": "“Macrocyclic kinase inhibitors and uses thereof” (Dana-Farber Cancer Institute, Inc., priority 2014, dated 2019)", "format_in_all_cases": "biochemical", "conditions_in_all_cases": "read-out: Activity of the protein kinase when treated with compound I-1 (% control)", "key": {"MLK3": {"biological_target": "MLK3 (Homo sapiens, UniProt Q16584)", "test": "Protein kinase assay ([γ-32P] ATP), MLK3", "method": "(§1) In another set of experiments, the activities of the compounds described herein against various protein kinases were determined according to the methods reported in Hastie et al., Nature Protocols, 2006, 1, 968-971.\n(§2) Enzyme dilution buffer. This buffer consisted of 50 mM Tris-HCl, pH 7.5, 0.1 mM EGTA, 1 mg ml^−1 bovine serum albumin and 0.1% (vol/vol) 2-mercaptoethanol.\n(§3) 10× concentrated assay buffer. An assay buffer of 500 mM Tris-HCl, pH 7.5, 1 mM EGTA, and 100 mM magnesium acetate was used for assay of a wide variety of protein kinases. In some experiments, other cofactors were included (e.g., calcium ions and calmodulin were included for assay of calcium-calmodulindependent protein kinases).\n(§4) 1 mM [γ-^32P] ATP. The specific activity of the [γ-^32P] ATP solution was 1×10^5 to 1×10^6 c.p.m. per nmol depending on what was needed to produce an optimal signal/noise ratio. […] To measure the concentration of ATP, a sample of such a stock solution was diluted to 20 μM, and the absorbance of the diluted sample was measured at 259 nm. The absorbance of a 20-μM stock solution of ATP at 259 nm was about 0.31. […] ATP to produce a radioactivity of 1×10^5 to 1×10^6 c.p.m. per nmol. […]\n(§5) 13) Measure radioactivity in the samples by Cerenkov counting (e.g., without liquid scintillation fluid) in a liquid scintillation counter using a “^32P program”. […]"}, "p38a MAPK": {"biological_target": "p38a MAPK (Homo sapiens, UniProt Q16539)", "sequence (Q16539 whole entry)": "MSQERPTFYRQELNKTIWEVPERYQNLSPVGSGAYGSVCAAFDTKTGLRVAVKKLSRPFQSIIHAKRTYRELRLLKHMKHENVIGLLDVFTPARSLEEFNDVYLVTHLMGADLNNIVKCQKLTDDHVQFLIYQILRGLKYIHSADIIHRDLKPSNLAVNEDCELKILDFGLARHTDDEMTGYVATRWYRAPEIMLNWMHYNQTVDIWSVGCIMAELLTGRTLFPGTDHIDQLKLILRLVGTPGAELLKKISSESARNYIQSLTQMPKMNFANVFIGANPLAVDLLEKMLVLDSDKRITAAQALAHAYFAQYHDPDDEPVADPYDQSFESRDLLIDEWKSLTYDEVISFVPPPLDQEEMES", "test": "Protein kinase assay ([γ-32P] ATP), p38a MAPK", "method": "as §1, §2, §3, §4, §5"}, "FGF-R1": {"biological_target": "FGF-R1 (Homo sapiens, UniProt P11362)", "test": "Protein kinase assay ([γ-32P] ATP), FGF-R1", "method": "as §1, §2, §3, §4, §5"}, "p38d MAPK": {"biological_target": "p38d MAPK (Homo sapiens, UniProt O15264)", "sequence (O15264 whole entry)": "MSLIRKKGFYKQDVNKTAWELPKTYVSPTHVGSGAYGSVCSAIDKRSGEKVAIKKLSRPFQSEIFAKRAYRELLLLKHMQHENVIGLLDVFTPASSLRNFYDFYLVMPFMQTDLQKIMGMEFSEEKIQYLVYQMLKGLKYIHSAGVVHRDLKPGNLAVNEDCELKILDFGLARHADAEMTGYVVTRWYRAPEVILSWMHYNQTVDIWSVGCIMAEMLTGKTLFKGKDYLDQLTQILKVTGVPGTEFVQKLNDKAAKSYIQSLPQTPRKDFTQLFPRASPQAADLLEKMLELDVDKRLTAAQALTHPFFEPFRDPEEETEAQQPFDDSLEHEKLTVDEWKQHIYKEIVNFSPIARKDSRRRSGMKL", "test": "Protein kinase assay ([γ-32P] ATP), p38d MAPK", "method": "as §1, §2, §3, §4, §5"}, "SGK1": {"biological_target": "SGK1 (Homo sapiens, UniProt O00141)", "sequence (O00141 whole entry, species assumed)": "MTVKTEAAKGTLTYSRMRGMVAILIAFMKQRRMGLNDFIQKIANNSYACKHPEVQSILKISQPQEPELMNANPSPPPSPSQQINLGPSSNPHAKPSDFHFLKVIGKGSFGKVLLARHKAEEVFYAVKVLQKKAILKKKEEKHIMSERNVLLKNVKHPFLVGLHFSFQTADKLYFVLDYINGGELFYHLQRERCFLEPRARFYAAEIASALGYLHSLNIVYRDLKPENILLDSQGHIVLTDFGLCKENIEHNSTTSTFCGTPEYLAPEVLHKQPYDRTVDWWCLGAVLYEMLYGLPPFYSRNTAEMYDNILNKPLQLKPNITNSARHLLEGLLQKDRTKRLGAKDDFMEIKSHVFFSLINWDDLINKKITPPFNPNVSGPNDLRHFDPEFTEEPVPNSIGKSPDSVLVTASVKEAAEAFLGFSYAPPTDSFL", "test": "Protein kinase assay ([γ-32P] ATP), SGK1", "method": "as §1, §2, §3, §4, §5"}, "MAPKAP-K2": {"biological_target": "MAPKAP-K2 (Homo sapiens, UniProt P49137)", "test": "Protein kinase assay ([γ-32P] ATP), MAPKAP-K2", "method": "as §1, §2, §3, §4, §5"}, "JNK2": {"biological_target": "JNK2 (Homo sapiens, UniProt P45984)", "test": "Protein kinase assay ([γ-32P] ATP), JNK2", "method": "as §1, §2, §3, §4, §5"}, "MINK1": {"biological_target": "MINK1 (Homo sapiens, UniProt Q8N4C8)", "test": "Protein kinase assay ([γ-32P] ATP), MINK1", "method": "as §1, §2, §3, §4, §5"}, "EPH-B1": {"biological_target": "EPH-B1 (Homo sapiens, UniProt P54762)", "sequence (P54762 18-984)": "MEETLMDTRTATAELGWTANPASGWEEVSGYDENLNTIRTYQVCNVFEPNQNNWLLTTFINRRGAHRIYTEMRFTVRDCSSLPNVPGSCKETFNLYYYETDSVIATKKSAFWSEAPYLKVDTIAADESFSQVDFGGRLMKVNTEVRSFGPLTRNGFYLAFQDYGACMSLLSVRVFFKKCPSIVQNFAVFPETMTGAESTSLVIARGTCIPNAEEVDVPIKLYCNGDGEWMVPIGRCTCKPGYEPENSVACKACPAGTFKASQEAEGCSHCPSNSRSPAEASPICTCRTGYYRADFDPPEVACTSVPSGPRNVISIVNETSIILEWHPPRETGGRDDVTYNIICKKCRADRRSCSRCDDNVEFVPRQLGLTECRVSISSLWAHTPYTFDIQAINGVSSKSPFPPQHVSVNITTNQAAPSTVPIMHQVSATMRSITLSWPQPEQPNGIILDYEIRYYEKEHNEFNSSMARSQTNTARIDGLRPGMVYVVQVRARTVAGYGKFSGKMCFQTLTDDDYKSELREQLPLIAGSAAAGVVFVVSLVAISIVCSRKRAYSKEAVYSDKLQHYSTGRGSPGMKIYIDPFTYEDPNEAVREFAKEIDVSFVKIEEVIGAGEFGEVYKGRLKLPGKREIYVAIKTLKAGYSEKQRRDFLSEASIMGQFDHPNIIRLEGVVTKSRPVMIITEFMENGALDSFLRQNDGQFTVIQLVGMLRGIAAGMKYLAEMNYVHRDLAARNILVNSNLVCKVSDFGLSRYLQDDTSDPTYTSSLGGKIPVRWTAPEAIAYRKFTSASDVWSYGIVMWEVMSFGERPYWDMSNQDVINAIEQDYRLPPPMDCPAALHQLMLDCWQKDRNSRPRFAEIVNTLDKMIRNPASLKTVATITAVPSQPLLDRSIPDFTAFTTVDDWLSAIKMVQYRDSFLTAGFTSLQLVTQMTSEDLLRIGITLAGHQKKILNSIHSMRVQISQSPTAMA", "test": "Protein kinase assay ([γ-32P] ATP), EPH-B1", "method": "as §1, §2, §3, §4, §5"}, "IKKb": {"biological_target": "IKKb (Homo sapiens, UniProt O14920)", "sequence (O14920 whole entry)": "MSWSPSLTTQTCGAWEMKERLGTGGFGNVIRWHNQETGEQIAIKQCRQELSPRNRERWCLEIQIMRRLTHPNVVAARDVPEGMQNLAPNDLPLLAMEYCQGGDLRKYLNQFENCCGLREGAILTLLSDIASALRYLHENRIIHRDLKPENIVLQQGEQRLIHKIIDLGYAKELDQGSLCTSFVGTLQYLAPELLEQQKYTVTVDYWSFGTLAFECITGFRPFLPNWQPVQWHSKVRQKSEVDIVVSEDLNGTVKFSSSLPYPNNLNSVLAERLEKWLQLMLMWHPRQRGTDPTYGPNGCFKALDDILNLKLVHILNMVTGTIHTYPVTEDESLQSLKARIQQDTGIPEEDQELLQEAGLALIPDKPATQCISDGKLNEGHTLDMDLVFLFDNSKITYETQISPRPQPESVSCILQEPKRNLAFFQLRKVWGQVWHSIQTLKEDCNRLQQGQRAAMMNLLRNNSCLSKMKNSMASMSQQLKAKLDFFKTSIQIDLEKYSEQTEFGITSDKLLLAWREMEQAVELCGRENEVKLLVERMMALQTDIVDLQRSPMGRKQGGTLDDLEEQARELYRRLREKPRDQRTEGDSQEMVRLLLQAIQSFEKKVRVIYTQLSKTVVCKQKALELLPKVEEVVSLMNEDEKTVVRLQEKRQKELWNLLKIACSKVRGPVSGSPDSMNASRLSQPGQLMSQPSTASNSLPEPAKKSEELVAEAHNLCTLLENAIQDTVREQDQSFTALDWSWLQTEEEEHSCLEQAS", "test": "Protein kinase assay ([γ-32P] ATP), IKKb", "method": "as §1, §2, §3, §4, §5"}, "SYK": {"biological_target": "SYK (Homo sapiens, UniProt P43405)", "test": "Protein kinase assay ([γ-32P] ATP), SYK", "method": "as §1, §2, §3, §4, §5"}, "MKK6": {"biological_target": "MKK6 (Homo sapiens, UniProt P52564)", "sequence (P52564 whole entry)": "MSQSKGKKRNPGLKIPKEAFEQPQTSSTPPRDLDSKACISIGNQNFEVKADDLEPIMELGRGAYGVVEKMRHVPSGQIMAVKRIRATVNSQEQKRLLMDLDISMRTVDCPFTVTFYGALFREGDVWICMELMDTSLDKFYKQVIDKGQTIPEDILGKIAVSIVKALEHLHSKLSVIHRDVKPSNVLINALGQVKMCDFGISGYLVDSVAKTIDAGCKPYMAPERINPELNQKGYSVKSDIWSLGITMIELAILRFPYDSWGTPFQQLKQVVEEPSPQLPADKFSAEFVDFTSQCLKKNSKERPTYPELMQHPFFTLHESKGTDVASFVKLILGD", "test": "Protein kinase assay ([γ-32P] ATP), MKK6", "method": "as §1, §2, §3, §4, §5"}, "TAK1": {"biological_target": "TAK1 (Homo sapiens, UniProt O43318)", "test": "Protein kinase assay ([γ-32P] ATP), TAK1", "method": "as §1, §2, §3, §4, §5"}, "YES1": {"biological_target": "YES1 (Homo sapiens, UniProt P07947)", "sequence (P07947 whole entry)": "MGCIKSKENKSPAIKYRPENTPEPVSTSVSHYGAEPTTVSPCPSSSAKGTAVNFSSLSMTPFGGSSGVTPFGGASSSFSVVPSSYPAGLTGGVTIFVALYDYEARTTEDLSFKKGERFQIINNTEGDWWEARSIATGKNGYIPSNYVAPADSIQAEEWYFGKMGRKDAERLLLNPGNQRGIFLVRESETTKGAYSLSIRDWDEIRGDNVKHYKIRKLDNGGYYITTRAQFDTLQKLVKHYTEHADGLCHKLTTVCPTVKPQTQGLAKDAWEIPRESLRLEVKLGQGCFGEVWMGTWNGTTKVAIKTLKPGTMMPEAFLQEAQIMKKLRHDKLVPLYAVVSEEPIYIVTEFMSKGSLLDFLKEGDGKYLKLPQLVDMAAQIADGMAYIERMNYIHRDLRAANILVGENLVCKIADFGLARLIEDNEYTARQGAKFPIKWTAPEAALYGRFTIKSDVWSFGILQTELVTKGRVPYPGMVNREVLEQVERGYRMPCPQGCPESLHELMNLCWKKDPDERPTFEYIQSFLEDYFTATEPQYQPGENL", "test": "Protein kinase assay ([γ-32P] ATP), YES1", "method": "as §1, §2, §3, §4, §5"}, "OSR1": {"biological_target": "OSR1 (Homo sapiens, UniProt O95747)", "test": "Protein kinase assay ([γ-32P] ATP), OSR1", "method": "as §1, §2, §3, §4, §5"}, "LKB1": {"biological_target": "LKB1 (Homo sapiens, UniProt Q15831)", "sequence (Q15831 whole entry)": "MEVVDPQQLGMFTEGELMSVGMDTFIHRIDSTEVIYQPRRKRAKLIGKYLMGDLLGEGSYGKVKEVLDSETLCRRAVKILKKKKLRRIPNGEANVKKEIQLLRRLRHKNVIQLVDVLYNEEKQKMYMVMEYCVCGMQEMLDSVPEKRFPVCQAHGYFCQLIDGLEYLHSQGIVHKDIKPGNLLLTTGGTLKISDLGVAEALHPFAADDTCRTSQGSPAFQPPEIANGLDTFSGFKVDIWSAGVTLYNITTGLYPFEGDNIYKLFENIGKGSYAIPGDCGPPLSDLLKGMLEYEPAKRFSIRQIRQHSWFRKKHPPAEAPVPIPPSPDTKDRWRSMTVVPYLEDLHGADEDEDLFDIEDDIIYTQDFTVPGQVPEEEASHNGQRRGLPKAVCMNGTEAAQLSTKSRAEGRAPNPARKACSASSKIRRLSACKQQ", "sequence (Q7RTN6 whole entry partner)": "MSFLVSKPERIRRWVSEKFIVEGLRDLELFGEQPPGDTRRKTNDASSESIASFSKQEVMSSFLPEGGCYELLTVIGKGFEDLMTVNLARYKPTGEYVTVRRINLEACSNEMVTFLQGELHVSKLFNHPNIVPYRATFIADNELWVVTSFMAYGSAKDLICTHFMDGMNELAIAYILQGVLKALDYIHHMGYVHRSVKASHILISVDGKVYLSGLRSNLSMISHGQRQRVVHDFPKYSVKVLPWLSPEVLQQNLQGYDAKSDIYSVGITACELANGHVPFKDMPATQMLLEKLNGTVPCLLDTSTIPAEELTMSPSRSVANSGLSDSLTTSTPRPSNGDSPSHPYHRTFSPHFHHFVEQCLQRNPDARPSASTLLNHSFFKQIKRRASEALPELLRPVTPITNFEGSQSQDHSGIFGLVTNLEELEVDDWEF", "sequence (Q9Y376 whole entry partner)": "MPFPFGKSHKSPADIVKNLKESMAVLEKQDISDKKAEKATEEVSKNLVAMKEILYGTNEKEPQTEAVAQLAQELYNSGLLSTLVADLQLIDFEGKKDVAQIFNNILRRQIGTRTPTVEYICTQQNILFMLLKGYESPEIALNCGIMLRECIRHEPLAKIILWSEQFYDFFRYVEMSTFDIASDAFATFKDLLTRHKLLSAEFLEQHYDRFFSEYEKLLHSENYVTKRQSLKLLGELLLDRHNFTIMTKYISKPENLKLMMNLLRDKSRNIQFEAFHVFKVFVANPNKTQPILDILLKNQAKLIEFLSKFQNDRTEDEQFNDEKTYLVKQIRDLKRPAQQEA", "test": "Protein kinase assay ([γ-32P] ATP), LKB1", "method": "as §1, §2, §3, §4, §5"}, "TTBK1": {"biological_target": "TTBK1 (Homo sapiens, UniProt Q5TCY1)", "test": "Protein kinase assay ([γ-32P] ATP), TTBK1", "method": "as §1, §2, §3, §4, §5"}, "[1]": {"conditions": "0.1 μM of compound I-1, DMSO control = 100%"}, "[2]": {"conditions": "1 μM of compound I-1, DMSO control = 100%"}}}
{"smiles": "Cc1cccc(C)c1NC(=O)N1C/C=C\\COc2cccc(c2)Nc2cc1ncn2", "note": "[Compound I-1]", "values": [{"measurement": "remaining activity at 0.1 µM", "setting": "MLK3; [1]", "result": 94, "unit": "%"}, {"measurement": "remaining activity at 1 µM", "setting": "MLK3; [2]", "result": 39, "unit": "%"}, {"measurement": "remaining activity at 0.1 µM", "setting": "p38a MAPK; [1]", "result": 79, "unit": "%"}, {"measurement": "remaining activity at 1 µM", "setting": "p38a MAPK; [2]", "result": 14, "unit": "%"}, {"measurement": "remaining activity at 0.1 µM", "setting": "FGF-R1; [1]", "result": 41, "unit": "%"}, {"measurement": "remaining activity at 1 µM", "setting": "FGF-R1; [2]", "result": 12, "unit": "%"}, {"measurement": "remaining activity at 0.1 µM", "setting": "p38d MAPK; [1]", "result": 110, "unit": "%"}, {"measurement": "remaining activity at 1 µM", "setting": "p38d MAPK; [2]", "result": 73, "unit": "%"}, {"measurement": "remaining activity at 0.1 µM", "setting": "SGK1; [1]", "result": 96, "unit": "%"}, {"measurement": "remaining activity at 1 µM", "setting": "SGK1; [2]", "result": 100, "unit": "%"}, {"measurement": "remaining activity at 0.1 µM", "setting": "MAPKAP-K2; [1]", "result": 88, "unit": "%"}, {"measurement": "remaining activity at 1 µM", "setting": "MAPKAP-K2; [2]", "result": 84, "unit": "%"}, {"measurement": "remaining activity at 0.1 µM", "setting": "JNK2; [1]", "result": 81, "unit": "%"}, {"measurement": "remaining activity at 1 µM", "setting": "JNK2; [2]", "result": 34, "unit": "%"}, {"measurement": "remaining activity at 0.1 µM", "setting": "MINK1; [1]", "result": 46, "unit": "%"}, {"measurement": "remaining activity at 1 µM", "setting": "MINK1; [2]", "result": 9, "unit": "%"}, {"measurement": "remaining activity at 0.1 µM", "setting": "EPH-B1; [1]", "result": 40, "unit": "%"}, {"measurement": "remaining activity at 1 µM", "setting": "EPH-B1; [2]", "result": 43, "unit": "%"}, {"measurement": "remaining activity at 0.1 µM", "setting": "IKKb; [1]", "result": 103, "unit": "%"}, {"measurement": "remaining activity at 1 µM", "setting": "IKKb; [2]", "result": 77, "unit": "%"}, {"measurement": "remaining activity at 0.1 µM", "setting": "SYK; [1]", "result": 100, "unit": "%"}, {"measurement": "remaining activity at 1 µM", "setting": "SYK; [2]", "result": 91, "unit": "%"}, {"measurement": "remaining activity at 0.1 µM", "setting": "MKK6; [1]", "result": 101, "unit": "%"}, {"measurement": "remaining activity at 1 µM", "setting": "MKK6; [2]", "result": 93, "unit": "%"}, {"measurement": "remaining activity at 0.1 µM", "setting": "TAK1; [1]", "result": 105, "unit": "%"}, {"measurement": "remaining activity at 1 µM", "setting": "TAK1; [2]", "result": 81, "unit": "%"}, {"measurement": "remaining activity at 0.1 µM", "setting": "YES1; [1]", "result": 10, "unit": "%"}, {"measurement": "remaining activity at 1 µM", "setting": "YES1; [2]", "result": 15, "unit": "%"}, {"measurement": "remaining activity at 0.1 µM", "setting": "OSR1; [1]", "result": 97, "unit": "%"}, {"measurement": "remaining activity at 1 µM", "setting": "OSR1; [2]", "result": 79, "unit": "%"}, {"measurement": "remaining activity at 0.1 µM", "setting": "LKB1; [1]", "result": 99, "unit": "%"}, {"measurement": "remaining activity at 1 µM", "setting": "LKB1; [2]", "result": 65, "unit": "%"}, {"measurement": "remaining activity at 0.1 µM", "setting": "TTBK1; [1]", "result": 115, "unit": "%"}, {"measurement": "remaining activity at 1 µM", "setting": "TTBK1; [2]", "result": 80, "unit": "%"}]}
